Results taken from Sander's compilation of Henry's law constants (doi:10.1002/etc.5620111109).

Test: Henry solubility constant Hcp at 293 K (mol/(m3 Pa))
Details: reference: ten Hulscher et al. (1992)

Row | SMILES | Henry solubility constant Hcp at 293 K
1 | Clc1cc(Cl)c(Cl)c(Cl)c1 [1,2,3,5-tetrachlorobenzene] | 0.01
2 | Clc1cccc(Cl)c1Cl [1,2,3-trichlorobenzene] | 0.014
3 | Clc1cc(Cl)cc(Cl)c1 [1,3,5-trichlorobenzene] | 0.0052

Test: Henry solubility constant Hcp at 298.15 K (mol/(m3 Pa))
Details: reference: ten Hulscher et al. (1992)

Row | SMILES | Henry solubility constant Hcp
4 | Clc1ccc(Cl)c(-c2cc(Cl)ccc2Cl)c1 [2,2',5,5'-tetrachlorobiphenyl] | 0.042
5 | Clc1ccc(Cl)c(-c2ccccc2)c1 [2,5-dichlorobiphenyl] | 0.023
6 | c1ccc2c(c1)cc1ccc3cccc4ccc2c1c34 [benzo[a]pyrene] | 22
7 | c1ccc2c(c1)-c1cccc3c1c-2cc1ccccc13 [benzo[b]fluoranthene] | 15
8 | c1cc2ccc3ccc4ccc5cccc6c(c1)c2c3c4c56 [benzo[ghi]perylene] | 30
9 | c1ccc2c(c1)-c1cccc3cccc-2c13 [benzo[jk]fluorene] | 1.1
10 | c1ccc2cc3c(cc2c1)-c1cccc2cccc-3c12 [benzo[k]fluoranthene] | 17
11 | c1ccc2c(c1)-c1ccc3ccc4cccc5cc-2c1c3c45 [indeno[1,2,3-cd]pyrene] | 28
